From ChEMBL document CHEMBL3734736, “A selective delta opioid receptor antagonist based on a stilbene core” (Bioorg Med Chem Lett, 2015)
Active and inactive are the calls of the source. No cut-off for these calls is given here.

Columns and labels:
[1] = target: T1, Delta-type opioid receptor (Homo sapiens, UniProt P41143); experiment: Antagonist activity at human delta opioid receptor over-expressed in CHO cell membrane assessed as inhibition of DPDPE-induced [35S]GTPgammaS binding at 10 uM after 1 hr by scintillation counting method; type: functional, cell membranes
T1 sequence (P41143 whole entry): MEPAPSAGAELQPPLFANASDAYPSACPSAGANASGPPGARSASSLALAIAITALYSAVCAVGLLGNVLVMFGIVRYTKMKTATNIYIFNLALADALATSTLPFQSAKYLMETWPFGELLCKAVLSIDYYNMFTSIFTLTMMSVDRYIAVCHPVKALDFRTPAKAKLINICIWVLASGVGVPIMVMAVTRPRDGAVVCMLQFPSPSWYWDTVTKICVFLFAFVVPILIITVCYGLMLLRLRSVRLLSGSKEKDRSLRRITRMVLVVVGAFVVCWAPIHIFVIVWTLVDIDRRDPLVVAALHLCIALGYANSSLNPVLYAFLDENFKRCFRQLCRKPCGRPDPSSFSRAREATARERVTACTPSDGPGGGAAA

[2] = target: Mu-type opioid receptor (Homo sapiens) (UniProt P35372); experiment: Antagonist activity at human mu opioid receptor over-expressed in CHO cell membrane assessed as inhibition of DAMGO-induced [35S]GTPgammaS binding at 10 uM after 1 hr by scintillation counting method; type: functional, cell membranes
Sequence of Mu-type opioid receptor (Homo sapiens) (P35372 whole entry): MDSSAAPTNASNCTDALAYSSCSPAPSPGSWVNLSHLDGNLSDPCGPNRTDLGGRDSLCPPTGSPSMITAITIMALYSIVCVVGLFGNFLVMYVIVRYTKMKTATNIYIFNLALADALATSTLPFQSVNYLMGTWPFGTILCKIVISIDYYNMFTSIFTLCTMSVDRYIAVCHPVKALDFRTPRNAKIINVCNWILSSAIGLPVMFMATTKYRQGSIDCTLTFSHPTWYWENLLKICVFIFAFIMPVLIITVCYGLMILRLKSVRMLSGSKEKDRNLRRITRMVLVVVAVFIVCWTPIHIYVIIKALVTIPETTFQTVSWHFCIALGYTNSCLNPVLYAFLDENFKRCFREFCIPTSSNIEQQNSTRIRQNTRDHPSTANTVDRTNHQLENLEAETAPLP

[3] = target: Mu-type opioid receptor (Homo sapiens) (UniProt P35372); experiment: Agonist activity at human mu opioid receptor over-expressed in CHO cell membrane after 1 hr by [35S]GTPgammaS binding assay; type: functional, cell membranes
[4] = target: Kappa-type opioid receptor (Homo sapiens) (UniProt P41145); experiment: Agonist activity at human kappa opioid receptor over-expressed in CHO cell membrane after 1 hr by [35S]GTPgammaS binding assay; type: functional, cell membranes
Sequence of Kappa-type opioid receptor (Homo sapiens) (P41145 whole entry): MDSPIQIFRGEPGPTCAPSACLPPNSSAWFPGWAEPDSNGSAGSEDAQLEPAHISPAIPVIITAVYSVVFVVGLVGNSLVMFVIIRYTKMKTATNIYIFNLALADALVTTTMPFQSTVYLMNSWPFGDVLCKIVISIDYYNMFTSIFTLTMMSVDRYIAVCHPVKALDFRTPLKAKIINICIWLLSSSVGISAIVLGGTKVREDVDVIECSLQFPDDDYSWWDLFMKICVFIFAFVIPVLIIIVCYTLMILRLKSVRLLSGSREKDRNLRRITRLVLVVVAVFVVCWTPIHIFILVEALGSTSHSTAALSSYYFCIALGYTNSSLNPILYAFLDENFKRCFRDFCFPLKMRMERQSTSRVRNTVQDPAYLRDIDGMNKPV

CHO [5] = experiment: Selectivity ratio, ratio of Ke for human kappa opioid receptor over-expressed in CHO cell membrane to Ke for human delta opioid receptor over-expressed in CHO cell membrane; type: cell-based
[6] = target: T1, Delta-type opioid receptor; experiment: Agonist activity at human delta opioid receptor over-expressed in CHO cell membrane after 1 hr by [35S]GTPgammaS binding assay; type: functional, cell membranes
CHO [7] = experiment: Selectivity ratio, ratio of Ke for human mu opioid receptor over-expressed in CHO cell membrane to Ke for human delta opioid receptor over-expressed in CHO cell membrane; type: cell-based
[8] = target: Kappa-type opioid receptor (Homo sapiens) (UniProt P41145); experiment: Antagonist activity at human kappa opioid receptor over-expressed in CHO cell membrane assessed as inhibition of U69,593-induced [35S]GTPgammaS binding at 10 uM after 1 hr by scintillation counting method; type: functional, cell membranes

Ke [1]: 0.025 µM | Ke [2]: > 10 µM | Activity [3]: inactive | Activity [4]: inactive | EC50 [6]: 6.6 µM | Ke [8]: > 10 µM
SMILES: COc1cc(/C=C/c2ccc(O)c(O)c2CC=C(C)C)c(C/C=C(\C)CCC=C(C)C)c(OC)c1
Ratio Ke (CHO [5]): > 400 | Ratio Ke (CHO [7]): > 400
